From patent US20200339691A1, “PROTEINACEOUS MOLECULES AND USES THEREFOR” (priority 2018, published 2020)
Where a SMILES comes first, the peptide text is derived from it. The star is where a group is joined. Myristoyl = CCCCCCCCCCCCCC(=O)*

What was measured:
[1] = system: CD44^hiCD24^lo CSCs in MDA-MB-231 cells; assay: FACS analysis of CD44^hiCD24^lo cancer stem cells in MDA-MB-231 cells treated with P1 analogues; format: cell-based, human; conditions: 50 μM peptide, 48 hours; for CD44^hiCD24^lo CSCs (%) / COI, Live Single CD44^hiCD24^lo CSCs (Cell Count): n = 1; for Average Inhibition of CSCs (%) / CD44^hiCD24^lo CSCs (%) Repeat 1 / CD44^hiCD24^lo CSCs (%) Repeat 2 / CD44^hiCD24^lo CSCs (%) Repeat 3: n = 3
Method: Analogues of P1 (Table 6) were designed and synthesized in accordance with the procedure of Example 5. The ability of these analogues to inhibit cancer stem cells was determined using FACS analysis on MDA-MB-231 cells, which constitutively contain approximately 90% CD44^hiCD24^lo cancer stem cells, treated with the peptides.
(§1) Non-adherent cells were removed during the washing steps.

MDA-MB-231 cells = format: cell-based, human; conditions: 50 μM peptide, 48 hours, n = 1
Text: as §1
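Throughout, for COI, Live Single Cells (Cell Count): live means Hoechst-negative events among single cells.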

| SMILES | Inhibition of CSCs (%) Repeat 1 [1] | Inhibition of CSCs (%) Repeat 2 [1] | Inhibition of CSCs (%) Repeat 3 [1] | CD44^hiCD24^lo CSCs (%) [1] | COI, Live Single CD44^hiCD24^lo CSCs (Cell Count) [1] | Average Inhibition of CSCs (%) [1] | CD44^hiCD24^lo CSCs (%) Repeat 1 [1] | CD44^hiCD24^lo CSCs (%) Repeat 2 [1] | CD44^hiCD24^lo CSCs (%) Repeat 3 [1] | COI (Cell Count) (MDA-MB-231 cells) | COI, Live Single Cells (Cell Count) (MDA-MB-231 cells) | COI, Single (Cell Count) (MDA-MB-231 cells) | Total Cell Count (MDA-MB-231 cells) |
| --- | --- | --- | --- | --- | --- | --- | --- | --- | --- | --- | --- | --- | --- |
| CCCCCCCCCCCCCC(=O)N[C@@H](CCCCN)C(=O)N[C@H](C(=O)N[C@@H](Cc1ccccc1)C(=O)N[C@H](C(=O)N[C@@H](Cc1ccccc1)C(=O)N[C@@H](CCCNC(=N)N)C(=O)N[C@@H](CC(C)C)C(=O)N[C@@H](CCCNC(=N)N)C(=O)N[C@@H](CCCCN)C(=O)NCC(=O)N[C@@H](CCCNC(=N)N)C(=O)N[C@@H](CCSC)C(=O)N[C@@H](CCSC)C(=O)N[C@@H](CC(=O)O)C(=O)N[C@H](C(=O)N[C@@H](CCCCN)C(=O)N[C@@H](CCCCN)C(N)=O)C(C)C)[C@@H](C)CC)[C@@H](C)O [Peptide 2853803, Myristoyl-KTFIFRLRKGRMMDVKK-NH2] (Myristoyl-KTFIFRLRKGRMMDVKK-NH2) | 27.90% | 27.33% | 38.43% | 60.36% | 402 | 31.22% | 64.62% | 65.20% | 55.25% | 741 | 666 | 702 | 1115 |
| CCCCCCCCCCCCCC(=O)N[C@@H](CC(C)C)C(=O)N[C@@H](CCC(=O)O)C(=O)N[C@@H](Cc1ccccc1)C(=O)N[C@H](C(=O)N[C@@H](Cc1ccccc1)C(=O)N[C@@H](CCCNC(=N)N)C(=O)N[C@@H](CC(C)C)C(=O)N[C@@H](CCCNC(=N)N)C(=O)N[C@@H](CCCCN)C(=O)NCC(=O)N[C@@H](CCCNC(=N)N)C(=O)N[C@@H](CCSC)C(=O)N[C@@H](CCSC)C(=O)N[C@@H](CC(=O)O)C(=O)N[C@H](C(=O)N[C@@H](CCCCN)C(=O)N[C@@H](CCCCN)C(N)=O)C(C)C)[C@@H](C)CC [Peptide 2853804, Myristoyl-LEFIFRLRKGRMMDVKK-NH2] (Myristoyl-LEFIFRLRKGRMMDVKK-NH2) | 85.86% | 80.73% | 86.58% | 13.77% | 19 | 84.39% | 12.67% | 17.29% | 12.05% | 360 | 138 | 203 | 1384 |
| CCCCCCCCCCCCCC(=O)N[C@@H](CC(C)C)C(=O)N[C@@H](CC(C)C)C(=O)N[C@@H](Cc1ccccc1)C(=O)N[C@H](C(=O)N[C@@H](Cc1ccccc1)C(=O)N[C@@H](CCCNC(=N)N)C(=O)N[C@@H](CC(C)C)C(=O)N[C@@H](CCCNC(=N)N)C(=O)N[C@@H](CCCCN)C(=O)NCC(=O)N[C@@H](CCCNC(=N)N)C(=O)N[C@@H](CCSC)C(=O)N[C@@H](CCSC)C(=O)N[C@@H](CC(=O)O)C(=O)N[C@H](C(=O)N[C@@H](CCCCN)C(=O)N[C@@H](CCCCN)C(N)=O)C(C)C)[C@@H](C)CC [Peptide 2853806, Myristoyl-LLFIFRLRKGRMMDVKK-NH2] (Myristoyl-LLFIFRLRKGRMMDVKK-NH2) | 4.36% | 9.44% | 10.85% | 91.86% | 3361 | 8.22% | 85.71% | 81.25% | 80.00% | 3997 | 3659 | 3696 | 4893 |
| CCCCCCCCCCCCCC(=O)N[C@@H](CC(C)C)C(=O)N[C@H](C(=O)N[C@@H](CCC(=O)O)C(=O)N[C@H](C(=O)N[C@@H](Cc1ccccc1)C(=O)N[C@@H](CCCNC(=N)N)C(=O)N[C@@H](CC(C)C)C(=O)N[C@@H](CCCNC(=N)N)C(=O)N[C@@H](CCCCN)C(=O)NCC(=O)N[C@@H](CCCNC(=N)N)C(=O)N[C@@H](CCSC)C(=O)N[C@@H](CCSC)C(=O)N[C@@H](CC(=O)O)C(=O)N[C@H](C(=O)N[C@@H](CCCCN)C(=O)N[C@@H](CCCCN)C(N)=O)C(C)C)[C@@H](C)CC)[C@@H](C)O [Peptide 2853807, Myristoyl-LTEIFRLRKGRMMDVKK-NH2] (Myristoyl-LTEIFRLRKGRMMDVKK-NH2) | 84.07% | 81.60% | 86.81% | 11.31% | 19 | 84.16% | 14.28% | 16.51% | 11.84% | 690 | 168 | 439 | 3558 |
| CCCCCCCCCCCCCC(=O)N[C@@H](CC(C)C)C(=O)N[C@H](C(=O)N[C@@H](CCCCN)C(=O)N[C@H](C(=O)N[C@@H](Cc1ccccc1)C(=O)N[C@@H](CCCNC(=N)N)C(=O)N[C@@H](CC(C)C)C(=O)N[C@@H](CCCNC(=N)N)C(=O)N[C@@H](CCCCN)C(=O)NCC(=O)N[C@@H](CCCNC(=N)N)C(=O)N[C@@H](CCSC)C(=O)N[C@@H](CCSC)C(=O)N[C@@H](CC(=O)O)C(=O)N[C@H](C(=O)N[C@@H](CCCCN)C(=O)N[C@@H](CCCCN)C(N)=O)C(C)C)[C@@H](C)CC)[C@@H](C)O [Peptide 2853808, Myristoyl-LTKIFRLRKGRMMDVKK-NH2] (Myristoyl-LTKIFRLRKGRMMDVKK-NH2) | 87.54% | 84.31% | 84.48% | 10.74% | 26 | 85.44% | 11.17% | 14.07% | 13.92% | 323 | 242 | 279 | 1192 |
| CCCCCCCCCCCCCC(=O)N[C@@H](CC(C)C)C(=O)N[C@H](C(=O)N[C@H](C(=O)N[C@H](C(=O)N[C@@H](Cc1ccccc1)C(=O)N[C@@H](CCCNC(=N)N)C(=O)N[C@@H](CC(C)C)C(=O)N[C@@H](CCCNC(=N)N)C(=O)N[C@@H](CCCCN)C(=O)NCC(=O)N[C@@H](CCCNC(=N)N)C(=O)N[C@@H](CCSC)C(=O)N[C@@H](CCSC)C(=O)N[C@@H](CC(=O)O)C(=O)N[C@H](C(=O)N[C@@H](CCCCN)C(=O)N[C@@H](CCCCN)C(N)=O)C(C)C)[C@@H](C)CC)C(C)C)[C@@H](C)O [Peptide 2853809, Myristoyl-LTVIFRLRKGRMMDVKK-NH2] (Myristoyl-LTVIFRLRKGRMMDVKK-NH2) | 49.62% | 53.48% | 60.55% | 35.61% | 537 | 54.55% | 45.15% | 41.73% | 35.40% | 1736 | 1508 | 1560 | 3548 |
| CCCCCCCCCCCCCC(=O)N[C@@H](CC(C)C)C(=O)N[C@H](C(=O)N[C@@H](Cc1ccccc1)C(=O)N[C@@H](CCC(=O)O)C(=O)N[C@@H](Cc1ccccc1)C(=O)N[C@@H](CCCNC(=N)N)C(=O)N[C@@H](CC(C)C)C(=O)N[C@@H](CCCNC(=N)N)C(=O)N[C@@H](CCCCN)C(=O)NCC(=O)N[C@@H](CCCNC(=N)N)C(=O)N[C@@H](CCSC)C(=O)N[C@@H](CCSC)C(=O)N[C@@H](CC(=O)O)C(=O)N[C@H](C(=O)N[C@@H](CCCCN)C(=O)N[C@@H](CCCCN)C(N)=O)C(C)C)[C@@H](C)O [Peptide 2853810, Myristoyl-LTFEFRLRKGRMMDVKK-NH2] (Myristoyl-LTFEFRLRKGRMMDVKK-NH2) | 87.14% | 87.82% | 83.75% | 13.58% | 74 | 86.23% | 11.53% | 10.93% | 14.58% | 778 | 545 | 613 | 3451 |
| CCCCCCCCCCCCCC(=O)N[C@@H](CC(C)C)C(=O)N[C@H](C(=O)N[C@@H](Cc1ccccc1)C(=O)N[C@@H](CCCCN)C(=O)N[C@@H](Cc1ccccc1)C(=O)N[C@@H](CCCNC(=N)N)C(=O)N[C@@H](CC(C)C)C(=O)N[C@@H](CCCNC(=N)N)C(=O)N[C@@H](CCCCN)C(=O)NCC(=O)N[C@@H](CCCNC(=N)N)C(=O)N[C@@H](CCSC)C(=O)N[C@@H](CCSC)C(=O)N[C@@H](CC(=O)O)C(=O)N[C@H](C(=O)N[C@@H](CCCCN)C(=O)N[C@@H](CCCCN)C(N)=O)C(C)C)[C@@H](C)O [Peptide 2853811, Myristoyl-LTFKFRLRKGRMMDVKK-NH2] (Myristoyl-LTFKFRLRKGRMMDVKK-NH2) | 57.93% | 62.10% | 67.22% | 39.06% | 25 | 62.42% | 37.70% | 34.00% | 29.41% | 79 | 64 | 69 | 1274 |
